Measurements taken from patent US20060069132A1, “Azolecarboxamide herbicides” (priority 2004, published 2006).

Experiments:
Surinam grass = test: Test E pre-/postemergence herbicide test; type: in vivo, Urochloa decumbens
From the text: (§1) Seeds of plant species selected from bipinnate beggarticks (Bidens bipinnata L.), hairy beggarticks (Bidens radiata Thuill.), bermudagrass (Cynodon dactylon (L.) Pers.), Surinam grass (Urochloa decumbens (Staph) R. D. Webster, previously named Brachiaria decumbens Stapf), large crabgrass (Digitaria sanguinalis (L.) Scop.), green foxtail (Setaria viridis (L.) P. Beauv.), goosegrass (Eleusine indica (L.) Gaertn.), johnsongrass (Sorghum halepense (L.) Pers.), kochia (Kochia scoparia (L.) Schrad.), pitted morningglory (Ipomoea lacunosa L.), purple nutsedge (Cyperus rotundus L.), common ragweed (Ambrosia elatior L.), mustard (Brassica nigra (L.) W. D. J. Koch), guineagrass (Panicum maximum Jacq.), dallisgrass (Paspalum dilatatum Poir.), barnyardgrass (Echinochloa crus-galli (L). P. Beauv.), southern sandbur (Cenchrus echinatus L.), common sowthistle (Sonchus oleraceous L.), prickly sida (Sida spinosa L.), Italian ryegrass (Lolium multiflorum Lam.), common purslane (Portulaca oleracea L.), broadleaf signalgrass (Brachiaria platyphylla (Griseb.) Nash), common groundsel (Senecio vulgaris L.), common chickweed (Stellaria media (L.) Vill/Cyr.), tropical spiderwort (Commelina benghalensis L.), annual bluegrass (Poa annua L.), downy bromegrass (Bromus tectorum L.), itchgrass (Rottboellia cochinchinensis (L.) L.f.), quackgrass (Elytrigia repens (L.) Nevski), Canada horseweed (Erigeron Canadensis L.), field bindweed (Convolvulus arvensis L.), spotted spurge (Euphorbia maculata L.), common mallow (Malva sylvestris (=s silvestris) L.), and Russian thistle (Salsola kali L. ssp. Ruthenica (Iljin) Soo) were planted and treated preemergence with test chemicals formulated in a non-phytotoxic solvent mixture which included a surfactant.
(§2) At the same time, plants selected from these weed species were treated with postemergence applications of some of the test chemicals formulated in the same manner. Plants ranged in height from 2 to 18 cm (1- to 4-leaf stage) for postemergence treatments. Treated plants and controls were maintained in a greenhouse for 12 to 14 days, after which time all species were compared to controls and visually evaluated. Plant response ratings, summarized in Table E, are based on a scale of 0 to 100 where 0 is no effect and 100 is complete control. A dash (-) response means no test result.

green foxtail = test: Test E pre-/postemergence herbicide test; type: in vivo, Setaria viridis
From the text: as §1, §2

goosegrass = test: Test E pre-/postemergence herbicide test; type: in vivo, Eleusine indica
From the text: as §1, §2

pitted morningglory = test: Test E pre-/postemergence herbicide test; type: in vivo, Ipomoea lacunosa
From the text: as §1, §2

common ragweed = test: Test E pre-/postemergence herbicide test; type: in vivo, Ambrosia elatior
From the text: as §1, §2

common sowthistle = test: Test E pre-/postemergence herbicide test; type: in vivo, Sonchus oleraceous
From the text: as §1, §2

broadleaf signalgrass = test: Test E pre-/postemergence herbicide test; type: in vivo, Brachiaria platyphylla
From the text: as §1, §2

annual bluegrass = test: Test E pre-/postemergence herbicide test; type: in vivo, Poa annua
From the text: as §1, §2

Russian thistle = test: Test E pre-/postemergence herbicide test; type: in vivo, Salsola kali; conditions: Preemergence
From the text: as §1, §2

rice flatsedge = test: Test D flooded paddy test; type: in vivo, Cyperus iria; conditions: 21 days, scale 0 to 100
From the text: (§3) Three plastic pots (ca. 16-cm diameter) per rate were partially filled with sterilized Tama silt loam soil comprising a 35:50:15 ratio of sand, silt and clay and 2.6% organic matter. Separate plantings for each of the three pots were as follows. Seeds from the U.S. of ducksalad (Heteranthera limosa (Sw.) Willd.), smallflower umbrella sedge (Cyperus difformis L.) and purple redstem (Ammannia coccinea Rottb.), were planted into one 16-cm pot for each rate. Seeds from the U.S. of rice flatsedge (Cyperus iria L.), bearded sprangletop (Leptochloa fascicularis (Lam.) Gray), one stand of 9 or 10 water seeded rice seedlings (Oryza sativa L. cv. ‘Japonica—M202’), and one stand of 6 transplanted rice seedlings (Oryza sativa L. cv. ‘Japonica—M202’) were planted into one 16-cm pot for each rate. Seeds from the U.S. of barnyardgrass (Echinochloa crus-galli (L.) Beauv.), late watergrass (Echinochloa oryzicola Vasinger), early watergrass (Echinochloa oryzoides (Ard.) Fritsch) and junglerice (Echinochloa colona (L.) Link) were planted into one 16-cm pot for each rate. Plantings were sequential so that crop and weed species were at the 2.0 to 2.5-leaf stage at time of treatment.
(§4) Potted plants were grown in a greenhouse with day/night temperature settings of 29.5/26.7° C., and supplemental balanced lighting was provided to maintain a 16-hour photoperiod. Test pots were maintained in the greenhouse until test completion.
(§5) At time of treatment, test pots were flooded to 3 cm above the soil surface, treated by application of test compounds directly to the paddy water, and then maintained at that water depth for the duration of the test. Effects of treatments on rice and weeds were visually evaluated by comparison to untreated controls after 21 days. Plant response ratings are reported on a 0 to 100 scale; where 0 is no effect and 100 is complete control. A dash (-) response means no test result.

early watergrass = test: Test D flooded paddy test; type: in vivo, Echinochloa oryzoides; conditions: 21 days, scale 0 to 100
From the text: as §3, §4, §5

[1] = Postemergence, 500 g ai/ha, scale 0 to 100
[2] = Postemergence, 250 g ai/ha, scale 0 to 100
[3] = Preemergence, 62 g ai/ha, scale 0 to 100
[4] = Preemergence, 125 g ai/ha, scale 0 to 100
[5] = Preemergence, 500 g ai/ha, scale 0 (no effect) to 100 (complete control)
[6] = postemergence, 125 g ai/ha, scale 0 to 100
[7] = postemergence, 62 g ai/ha, scale 0 to 100
[8] = Preemergence, 125 g ai/ha, scale 0 (no effect) to 100 (complete control)
[9] = Preemergence, 250 g ai/ha, scale 0 (no effect) to 100 (complete control)
[10] = 500 g ai/ha, scale 0 (no effect) to 100 (complete control)

## CCn1nc(C(C)(C)C)cc1C(=O)Nc1cc(C(=O)N(C)C)ccc1F [Compound 6, N-[5-[(dimethylamino)carbonyl]-2-fluorophenyl]-3-(1,1-dimethylethyl)-1-ethyl-1H-pyrazole-5-carboxamide]
Surinam grass; [1]
  Plant response rating, Surinam Grass: 98
Surinam grass; [2]
  Plant response rating, Surinam Grass: 95
Surinam grass; [3]
  Plant response rating, Surinam Grass: 85
Surinam grass; [4]
  Plant response rating, Surinam Grass: 90
Surinam grass; [5]
  Plant response rating, Surinam Grass: 100
Surinam grass; [6]
  Plant response rating, Surinam Grass: 90
Surinam grass; [7]
  Plant response rating, Surinam Grass: 75
Green foxtail; [1]
  Plant response rating, Foxtail, Green: 98
Green foxtail; [2]
  Plant response rating, Foxtail, Green: 98
Green foxtail; [3]
  Plant response rating, Foxtail, Green: 95
Green foxtail; [8]
  Plant response rating, Foxtail, Green: 95
Green foxtail; [5]
  Plant response rating, Foxtail, Green: 100
Green foxtail; [6]
  Plant response rating, Foxtail, Green: 90
Green foxtail; [7]
  Plant response rating, Foxtail, Green: 80
goosegrass; [1]
  Plant response rating, Goosegrass: 98
goosegrass; [2]
  Plant response rating, Goosegrass: 98
goosegrass; [3]
  Plant response rating, Goosegrass: 85
goosegrass; [8]
  Plant response rating, Goosegrass: 95
goosegrass; [5]
  Plant response rating, Goosegrass: 100
goosegrass; [6]
  Plant response rating, Goosegrass: 98
goosegrass; [7]
  Plant response rating, Goosegrass: 90
Pitted morningglory; [1]
  Plant response rating, Morningglory: 80
Pitted morningglory; [2]
  Plant response rating, Morningglory: 60
Pitted morningglory; [3]
  Plant response rating, Morningglory: 20
Pitted morningglory; [8]
  Plant response rating, Morningglory: 70
Pitted morningglory; [5]
  Plant response rating, Morningglory: 100
Pitted morningglory; [6]
  Plant response rating, Morningglory: 10
Pitted morningglory; [7]
  Plant response rating, Morningglory: 0
Common ragweed; [1]
  Plant response rating, Ragweed: 95
Common ragweed; [2]
  Plant response rating, Ragweed: 95
Common ragweed; [3]
  Plant response rating, Ragweed: 50
Common ragweed; [8]
  Plant response rating, Ragweed: 80
Common ragweed; [5]
  Plant response rating, Ragweed: 95
Common ragweed; [6]
  Plant response rating, Ragweed: 90
Common ragweed; [7]
  Plant response rating, Ragweed: 75
Common sowthistle; [1]
  Plant response rating, Sowthistle: 100
Common sowthistle; [2]
  Plant response rating, Sowthistle: 100
Common sowthistle; [3]
  Plant response rating, Sowthistle: 95
Common sowthistle; [8]
  Plant response rating, Sowthistle: 95
Common sowthistle; [9]
  Plant response rating, Sowthistle: 100
Common sowthistle; [5]
  Plant response rating, Sowthistle: 100
Common sowthistle; [6]
  Plant response rating, Sowthistle: 95
Common sowthistle; [7]
  Plant response rating, Sowthistle: 75
Broadleaf signalgrass; [1]
  Plant response rating, Signalgrass: 98
Broadleaf signalgrass; [2]
  Plant response rating, Signalgrass: 95
Broadleaf signalgrass; [3]
  Plant response rating, Signalgrass: 75
Broadleaf signalgrass; [8]
  Plant response rating, Signalgrass: 75
Broadleaf signalgrass; [5]
  Plant response rating, Signalgrass: 95
Broadleaf signalgrass; [6]
  Plant response rating, Signalgrass: 90
Broadleaf signalgrass; [7]
  Plant response rating, Signalgrass: 35
Annual bluegrass; [1]
  Plant response rating, Bluegrass: 98
Annual bluegrass; [2]
  Plant response rating, Bluegrass: 98
Annual bluegrass; [3]
  Plant response rating, Bluegrass: 100
Annual bluegrass; [8]
  Plant response rating, Bluegrass: 100
Annual bluegrass; [5]
  Plant response rating, Bluegrass: 100
Annual bluegrass; [6]
  Plant response rating, Bluegrass: 98
Annual bluegrass; [7]
  Plant response rating, Bluegrass: 98
Russian thistle; 62 g ai/ha, scale 0 to 100
  Plant response rating, Thistle: 50
Russian thistle; 125 g ai/ha, scale 0 to 100
  Plant response rating, Thistle: 70
Russian thistle; 250 g ai/ha, scale 0 (no effect) to 100 (complete control)
  Plant response rating, Thistle: 70
Russian thistle; [10]
  Plant response rating, Thistle: 80

## CCc1nc(C(C)(C)C)sc1C(=O)Nc1cccc(C(=O)NCC2CC2)n1 [Compound 215]
Rice flatsedge; 125 g ai/ha
  Plant response rating, Flatsedge, Rice: 0
Rice flatsedge; 250 g ai/ha
  Plant response rating, Flatsedge, Rice: 60
Rice flatsedge; 500 g ai/ha
  Plant response rating, Flatsedge, Rice: 60
Rice flatsedge; 750 g ai/ha
  Plant response rating, Flatsedge, Rice: 80
Rice flatsedge; 1000 g ai/ha
  Plant response rating, Flatsedge, Rice: 90
Early watergrass; 125 g ai/ha
  Plant response rating, Watergrass, Early: 0
Early watergrass; 250 g ai/ha
  Plant response rating, Watergrass, Early: 0
Early watergrass; 500 g ai/ha
  Plant response rating, Watergrass, Early: 20
Early watergrass; 750 g ai/ha
  Plant response rating, Watergrass, Early: 25
Early watergrass; 1000 g ai/ha
  Plant response rating, Watergrass, Early: 40

## CCc1nn(C(C)(C)CC)nc1C(=O)Nc1cccc(C(=O)N(C)C)c1 [Compound 372]
Surinam grass; [4]
  Plant response rating, Surinam Grass: 40
Surinam grass; [5]
  Plant response rating, Surinam Grass: 75
Green foxtail; [3]
  Plant response rating, Foxtail, Green: 10
Green foxtail; [4]
  Plant response rating, Foxtail, Green: 50
Green foxtail; [9]
  Plant response rating, Foxtail, Green: 60
Green foxtail; [5]
  Plant response rating, Foxtail, Green: 70
goosegrass; [3]
  Plant response rating, Goosegrass: 40
goosegrass; [4]
  Plant response rating, Goosegrass: 40
goosegrass; [9]
  Plant response rating, Goosegrass: 50
goosegrass; [5]
  Plant response rating, Goosegrass: 75
Pitted morningglory; [3]
  Plant response rating, Morningglory: 10
Pitted morningglory; [4]
  Plant response rating, Morningglory: 20
Pitted morningglory; [9]
  Plant response rating, Morningglory: 50
Pitted morningglory; [5]
  Plant response rating, Morningglory: 60
Common ragweed; [3]
  Plant response rating, Ragweed: 10
Common ragweed; [4]
  Plant response rating, Ragweed: 20
Common ragweed; [9]
  Plant response rating, Ragweed: 40
Common ragweed; [5]
  Plant response rating, Ragweed: 70
Common sowthistle; [3]
  Plant response rating, Sowthistle: 10
Common sowthistle; [4]
  Plant response rating, Sowthistle: 40
Common sowthistle; [9]
  Plant response rating, Sowthistle: 40
Common sowthistle; [5]
  Plant response rating, Sowthistle: 95
Broadleaf signalgrass; [3]
  Plant response rating, Signalgrass: 0
Broadleaf signalgrass; [4]
  Plant response rating, Signalgrass: 10
Broadleaf signalgrass; [9]
  Plant response rating, Signalgrass: 40
Broadleaf signalgrass; [5]
  Plant response rating, Signalgrass: 60
Annual bluegrass; [3]
  Plant response rating, Bluegrass: 30
Annual bluegrass; [4]
  Plant response rating, Bluegrass: 80
Annual bluegrass; [9]
  Plant response rating, Bluegrass: 95
Annual bluegrass; [5]
  Plant response rating, Bluegrass: 95
Russian thistle; 125 g ai/ha, scale 0 to 100
  Plant response rating, Thistle: 40
Russian thistle; [10]
  Plant response rating, Thistle: 80

## Cc1nn(C(C)(C)C)nc1C(=O)Nc1cccc(C(=O)N(C)C)c1 [Compound 391]
Surinam grass; [4]
  Plant response rating, Surinam Grass: 70
Surinam grass; [5]
  Plant response rating, Surinam Grass: 100
Green foxtail; [3]
  Plant response rating, Foxtail, Green: 60
Green foxtail; [4]
  Plant response rating, Foxtail, Green: 80
Green foxtail; [9]
  Plant response rating, Foxtail, Green: 95
Green foxtail; [5]
  Plant response rating, Foxtail, Green: 100
goosegrass; [3]
  Plant response rating, Goosegrass: 30
goosegrass; [4]
  Plant response rating, Goosegrass: 80
goosegrass; [9]
  Plant response rating, Goosegrass: 90
goosegrass; [5]
  Plant response rating, Goosegrass: 95
Pitted morningglory; [3]
  Plant response rating, Morningglory: 10
Pitted morningglory; [4]
  Plant response rating, Morningglory: 60
Pitted morningglory; [9]
  Plant response rating, Morningglory: 80
Pitted morningglory; [5]
  Plant response rating, Morningglory: 80
Common ragweed; [3]
  Plant response rating, Ragweed: 50
Common ragweed; [4]
  Plant response rating, Ragweed: 75
Common ragweed; [9]
  Plant response rating, Ragweed: 95
Common ragweed; [5]
  Plant response rating, Ragweed: 100
Common sowthistle; [3]
  Plant response rating, Sowthistle: 50
Common sowthistle; [4]
  Plant response rating, Sowthistle: 75
Common sowthistle; [9]
  Plant response rating, Sowthistle: 100
Common sowthistle; [5]
  Plant response rating, Sowthistle: 100
Broadleaf signalgrass; [3]
  Plant response rating, Signalgrass: 40
Broadleaf signalgrass; [4]
  Plant response rating, Signalgrass: 70
Broadleaf signalgrass; [9]
  Plant response rating, Signalgrass: 90
Broadleaf signalgrass; [5]
  Plant response rating, Signalgrass: 90
Annual bluegrass; [3]
  Plant response rating, Bluegrass: 95
Annual bluegrass; [4]
  Plant response rating, Bluegrass: 95
Annual bluegrass; [9]
  Plant response rating, Bluegrass: 95
Annual bluegrass; [5]
  Plant response rating, Bluegrass: 95
Russian thistle; 125 g ai/ha, scale 0 to 100
  Plant response rating, Thistle: 100
Russian thistle; [10]
  Plant response rating, Thistle: 100
